Assay results: ChEMBL document CHEMBL1130746, “Naphthalenebis[alpha,alpha-difluoromethylenephosphonates] as potent inhibitors of protein tyrosine phosphatases” (Bioorg Med Chem Lett, 1998)
pIC50, pKi: −log10 of the molar value.

What was measured:
[1] = biological target: T1, Receptor-type tyrosine-protein phosphatase C (Homo sapiens) (UniProt P08575); experiment: Compound was evaluated for inhibition of CD45 protein-tyrosine phosphatase at a concentration of 500 uM)
T1 sequence (whole entry): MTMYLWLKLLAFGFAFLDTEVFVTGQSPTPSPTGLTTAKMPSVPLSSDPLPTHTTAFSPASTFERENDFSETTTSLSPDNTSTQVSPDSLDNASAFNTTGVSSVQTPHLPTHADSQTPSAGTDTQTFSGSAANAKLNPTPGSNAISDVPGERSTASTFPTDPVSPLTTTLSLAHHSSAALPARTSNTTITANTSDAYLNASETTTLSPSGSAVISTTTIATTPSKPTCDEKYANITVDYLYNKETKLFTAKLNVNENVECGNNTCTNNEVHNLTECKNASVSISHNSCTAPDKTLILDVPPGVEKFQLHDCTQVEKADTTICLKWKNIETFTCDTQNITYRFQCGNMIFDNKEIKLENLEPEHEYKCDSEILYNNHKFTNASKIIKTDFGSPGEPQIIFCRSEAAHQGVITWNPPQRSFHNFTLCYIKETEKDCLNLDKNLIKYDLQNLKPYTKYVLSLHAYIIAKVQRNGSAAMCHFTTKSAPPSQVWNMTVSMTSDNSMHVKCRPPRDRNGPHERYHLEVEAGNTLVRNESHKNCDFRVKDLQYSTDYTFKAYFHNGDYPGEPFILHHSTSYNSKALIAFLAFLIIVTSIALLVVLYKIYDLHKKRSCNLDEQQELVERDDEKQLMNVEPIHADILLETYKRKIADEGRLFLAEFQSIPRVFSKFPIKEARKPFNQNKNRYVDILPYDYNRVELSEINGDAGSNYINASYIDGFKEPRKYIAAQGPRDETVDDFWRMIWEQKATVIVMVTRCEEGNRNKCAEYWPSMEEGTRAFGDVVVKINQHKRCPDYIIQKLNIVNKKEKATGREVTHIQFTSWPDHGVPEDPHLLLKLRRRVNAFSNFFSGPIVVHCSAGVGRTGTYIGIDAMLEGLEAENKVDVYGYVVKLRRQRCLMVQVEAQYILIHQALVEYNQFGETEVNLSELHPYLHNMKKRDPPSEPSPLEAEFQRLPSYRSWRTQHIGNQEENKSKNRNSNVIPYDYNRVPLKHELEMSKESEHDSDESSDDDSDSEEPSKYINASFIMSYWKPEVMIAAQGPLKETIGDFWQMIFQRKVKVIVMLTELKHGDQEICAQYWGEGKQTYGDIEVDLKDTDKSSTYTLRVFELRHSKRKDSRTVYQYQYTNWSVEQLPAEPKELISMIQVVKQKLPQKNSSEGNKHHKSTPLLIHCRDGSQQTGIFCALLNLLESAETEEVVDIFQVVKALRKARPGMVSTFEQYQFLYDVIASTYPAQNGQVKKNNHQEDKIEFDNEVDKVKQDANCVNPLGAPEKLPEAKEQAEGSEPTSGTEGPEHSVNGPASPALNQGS

[2] = Compound was evaluated for inhibition of PP2A at a concentration of 500 uM)
[3] = biological target: T2, Tyrosine-protein phosphatase non-receptor type 1 (Homo sapiens) (UniProt P18031); experiment: Compound was evaluated for inhibition of PTP1B at a concentration of 500 uM)
T2 sequence (whole entry): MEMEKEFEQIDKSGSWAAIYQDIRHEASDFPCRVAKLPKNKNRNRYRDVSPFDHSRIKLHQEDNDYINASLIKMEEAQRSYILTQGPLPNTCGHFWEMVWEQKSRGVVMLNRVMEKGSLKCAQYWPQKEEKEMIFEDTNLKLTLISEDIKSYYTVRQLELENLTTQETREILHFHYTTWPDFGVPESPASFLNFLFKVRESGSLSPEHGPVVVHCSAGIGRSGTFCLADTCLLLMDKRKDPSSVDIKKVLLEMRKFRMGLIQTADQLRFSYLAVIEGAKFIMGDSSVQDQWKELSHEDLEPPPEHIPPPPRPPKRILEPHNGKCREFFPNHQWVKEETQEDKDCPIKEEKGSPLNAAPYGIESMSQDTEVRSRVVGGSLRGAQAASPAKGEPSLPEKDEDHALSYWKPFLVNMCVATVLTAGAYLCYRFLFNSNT

[4] = biological target: T3, Receptor-type tyrosine-protein phosphatase C (Homo sapiens, UniProt P08575); experiment: Compound was evaluated for 50% inhibition of CD45 protein-tyrosine phosphatase using uM)
T3 sequence (P08575 whole entry): T1 sequence (whole entry)

[5] = biological target: T4, Tyrosine-protein phosphatase non-receptor type 1 (Homo sapiens, UniProt P18031); experiment: Compound was evaluated for 50% inhibition of PTP1B using uM)
T4 sequence (P18031 whole entry): T2 sequence (whole entry)

[6] = biological target: T3, Receptor-type tyrosine-protein phosphatase C; experiment: Compound was evaluated for 50% inhibition of CD45 using uM)
[7] = biological target: T1, Receptor-type tyrosine-protein phosphatase C (Homo sapiens); experiment: Compound was evaluated for inhibition of CD45 at a concentration of 500 uM)
[8] = biological target: T4, Tyrosine-protein phosphatase non-receptor type 1; experiment: Compound was evaluated for inhibitory constant against PTP1B
[9] = Compound was evaluated for 50% inhibition of PP2A, a serine/threonine phosphatase using uM)
[10] = biological target: T3, Receptor-type tyrosine-protein phosphatase C; experiment: Compound was evaluated for inhibitory constant against CD45

Compound | inhibition [1] [%] | inhibition [2] [%] | inhibition [3] [%] | pIC50 [4] | pIC50 [5] | pIC50 [6] | inhibition [7] [%] | pKi [8] | pIC50 [9] | pKi [10]
O=P(O)(O)C(F)(F)c1cccc2c(C(F)(F)P(=O)(O)O)cccc12 | 26 | 77 | 51 |  |  |  |  |  |  | 
O=P(O)(O)Cc1ccc2ccc(CP(=O)(O)O)cc2c1 |  |  |  | 3.30 | < 3.30 |  |  |  |  | 
O=P(O)(O)C(F)(F)c1cccc2ccccc12 |  | 52 | 83 |  | 3.95 | < 3.00 | 20 | 3.59 | 3.20 | 
O=P(O)(O)C(F)(F)c1ccc2cc(C(F)(F)P(=O)(O)O)ccc2c1 | 62 | 70 | 100 | < 4.00 | 4.54 |  |  |  | 3.45 | 
O=P(O)(O)C(F)(F)c1cc(C(F)(F)P(=O)(O)O)c2ccccc2c1 | 78 | 66 | 81 |  |  |  |  |  |  | 
O=P(O)(O)C(F)c1ccc2ccc(C(F)P(=O)(O)O)cc2c1 (configuration not stated) |  |  |  | 3.55 | 3.89 |  |  |  |  | 
O=P(O)(O)C(F)(F)c1ccc2c(C(F)(F)P(=O)(O)O)cccc2c1 | 70 | 75 | 89 |  |  |  |  |  |  | 
O=P(O)(O)C(F)(F)c1cc(O)c2ccccc2c1 |  |  |  |  |  |  |  | 4.03 |  | 
O=P(O)(O)C(F)(F)c1ccc2ccccc2c1 |  | 39 | 84 |  | 4.02 | < 3.00 | 5 | 3.71 | 3.12 | 
O=P(O)(O)C(F)(F)c1ccc2cccc(C(F)(F)P(=O)(O)O)c2c1 | 99 | 61 | 98 |  | 3.93 | 4.57 |  |  | 3.32 | 5.05
O=P(O)(O)C(F)(F)c1ccc2ccc(C(F)(F)P(=O)(O)O)cc2c1 |  | 70 | 100 |  |  | 3.74 | 64 | 4.80 | 3.51 | 
